± gives the standard deviation of the averaged measurements.
What was measured:
Assay in all cases: level (log10 ratio to DMSO vehicle control); higher = higher biomarker level / cell amount than vehicle control
[1] = compound: CO[Si](C)(CCC(F)(F)C(F)(F)C(F)(F)C(F)(F)C(F)(F)C(F)(F)F)OC [Dimethoxymethyl((perfluorohexyl)ethyl)silane] (in DMSO)
Experimental: (§1)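 BioMAP Diversity Plus panel of 12 human primary cell co-culture systems (3C, 4H, LPS, SAg, BT, BF4T, BE3C, CASM3C, HDF3CGF, KF3CT, MyoF, Mphg). Compounds were added 1 h before stimulation and left for 24 h (MyoF 48 h; BT 72 h for soluble read-outs or 6 d for IgG). Biomarkers were read by ELISA, cytotoxicity by SRB, PBMC viability and proliferation by Alamar Blue. Each well value was divided by the mean of 8 DMSO control wells on the same plate and log10 transformed; duplicate blinded samples were tested at 4 concentrations.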

[2] = compound: O=S(=O)(O)C(F)(F)C(F)(F)OC(F)(F)C(F)(F)F [Perfluoro(2-ethoxyethane)sulfonic acid] (in DMSO)
Experimental: as §1

[3] = compound: O=C(O)C(F)(OC(F)(F)C(F)(OC(F)(F)C(F)(OC(F)(F)C(F)(F)C(F)(F)F)C(F)(F)F)C(F)(F)F)C(F)(F)F [Perfluoro-(2,5,8-trimethyl-3,6,9-trioxadodecanoic)acid] (in DMSO)
Experimental: as §1

[4] = compound: NS(=O)(=O)C(F)(F)C(F)(F)C(F)(F)C(F)(F)C(F)(F)C(F)(F)C(F)(F)C(F)(F)F [Perfluorooctanesulfonamide] (in DMSO)
Experimental: as §1

[5] = compound: O=C(O)C(F)(OC(F)(F)C(F)(F)C(F)(F)F)C(F)(F)F [Ammonium perfluoro-2-methyl-3-oxahexanoate] (in Water)
Experimental: as §1

[6] = compound: OCC(F)(F)C(F)(F)C(F)(F)C(F)(F)C(F)(F)C(F)(F)CO [1H,1H,8H,8H-Perfluorooctane-1,8-diol] (in DMSO)
Experimental: as §1

Octafluoroadipic acid = compound: O=C(O)C(F)(F)C(F)(F)C(F)(F)C(F)(F)C(=O)O [Octafluoroadipic acid] (in DMSO)
Experimental: as §1

Test System | level (log10) ([1]; 6700 nM) | level (log10) ([1]; 20000 nM) | level (log10) ([2]; 6700 nM) | level (log10) ([2]; 20000 nM) | level (log10) ([2]; 60000 nM) | level (log10) ([3]; 1100 nM) | level (log10) ([3]; 3300 nM) | level (log10) ([3]; 10000 nM) | level (log10) ([4]; 6700 nM) | level (log10) ([4]; 20000 nM) | level (log10) ([5]; 6700 nM) | level (log10) ([5]; 20000 nM) | level (log10) ([5]; 60000 nM) | level (log10) ([6]; 6700 nM) | level (log10) ([6]; 20000 nM) | level (log10) ([6]; 60000 nM) | level (log10) (Octafluoroadipic acid; 6700 nM) | level (log10) (Octafluoroadipic acid; 20000 nM) | level (log10) (Octafluoroadipic acid; 60000 nM)
SAg:CD40 | -0.0095 ± 0.0078 | -0.022 ± 0.0042 | 0.0065 ± 0.0035 | 0.024 ± 0.0085 | 0.017 ± 0.0085 | -0.009 ± 0.0071 | -0.0015 ± 0.0021 | -0.0005 ± 0.019 | -0.028 ± 0.0042 | -0.1085 ± 0.00071 | -0.019 ± 0.013 | -0.017 ± 0.0014 | -0.0555 ± 0.077 | -0.024 ± 0.05 | -0.0115 ± 0.064 | -0.0525 ± 0.043 | -0.0135 ± 0.015 | -0.013 ± 0.023 | -0.025 ± 0.016
SAg:CD62E/E-Selectin | -0.0185 ± 0.019 | 0.0235 ± 0.0035 | 0.0015 ± 0.0021 | 0.001 ± 0.0071 | 0.033 ± 0.018 | -0.02 ± 0.0014 | -0.031 ± 0.02 | 0.008 ± 0.042 | -0.0165 ± 0.00071 | -0.0845 ± 0.015 | 0.036 ± 0.0014 | 0.022 ± 0.013 | 0.057 ± 0.0028 | 0.0005 ± 0.00071 | -0.026 ± 0.0028 | -0.016 ± 0.0042 | -0.0095 ± 0.077 | 0.0125 ± 0.053 | 0.0285 ± 0.029
SAg:CD69 | -0.032 ± 0.033 | -0.0115 ± 0.011 | 0.0055 ± 0.032 | 0.0065 ± 0.016 | 0.015 ± 0.021 | -0.0135 ± 0.005 | -0.015 ± 0.0042 | -0.0095 ± 0.023 | -0.0205 ± 0.06 | -0.119 ± 0.064 | -0.046 ± 0.0071 | -0.0265 ± 0.019 | -0.0205 ± 0.005 | -0.022 ± 0.031 | -0.002 ± 0.0071 | -0.0145 ± 0.015 | 0.0345 ± 0.073 | 0.0345 ± 0.056 | 0.0315 ± 0.054
SAg:CXCL8/IL-8 | -0.0085 ± 0.012 | 0.0145 ± 0.018 | 0.0225 ± 0.057 | 0.0465 ± 0.016 | 0.0945 ± 0.0035 | -0.0095 ± 0.028 | -0.0265 ± 0.037 | 0.0195 ± 0.026 | -0.0015 ± 0.005 | -0.0505 ± 0.03 | 0.103 ± 0.0085 | 0.099 ± 0.0085 | 0.167 ± 0.047 | -0.0205 ± 0.04 | -0.0245 ± 0.019 | 0.0095 ± 0.035 | 0.014 ± 0.018 | 0.01 ± 0.013 | 0.018 ± 0.031
SAg:CXCL9/MIG | 0.0075 ± 0.0021 | -0.0035 ± 0.0035 | 0.007 | -0.0025 ± 0.0078 | 0.0035 ± 0.005 | -0.01 ± 0.017 | 0.008 ± 0.017 | -0.0005 ± 0.016 | -0.002 ± 0.0042 | -0.0055 ± 0.011 | -0.006 ± 0.0085 | 0.001 ± 0.014 | 0.001 ± 0.028 | -0.0055 ± 0.0021 | 0.0035 ± 0.0064 | 0.02 ± 0.0085 | -0.0075 ± 0.016 | 0.005 ± 0.0028 | 0.011 ± 0.0057
SAg:PBMC Cytotoxicity | -0.0045 ± 0.012 | 0.019 ± 0.0057 | -0.025 ± 0.038 | 0.0045 ± 0.0092 | 0.0085 ± 0.0021 | 0.002 ± 0.04 | 0.024 ± 0.027 | -0.0095 ± 0.07 | 0.009 ± 0.034 | 0.0315 ± 0.0064 | -0.011 ± 0.013 | -0.024 ± 0.013 | -0.0035 ± 0.0064 | -0.0045 ± 0.03 | 0.036 ± 0.062 | 0.0305 ± 0.033 | 0.0085 ± 0.0064 | -0.0165 ± 0.042 | 0.0155 ± 0.00071
SAg:Proliferation | 0.051 ± 0.048 | -0.004 ± 0.13 | -0.0725 ± 0.012 | -0.048 ± 0.025 | -0.038 ± 0.024 | 0.009 ± 0.041 | 0.0425 ± 0.0035 | 0.0335 ± 0.016 | -0.031 ± 0.042 | -0.0445 ± 0.036 | -0.0005 ± 0.028 | -0.043 ± 0.028 | -0.0265 ± 0.049 | -0.0035 ± 0.033 | 0 ± 0.025 | -0.0055 ± 0.039 | -0.021 ± 0.016 | -0.0095 ± 0.0092 | -0.0065 ± 0.059
SAg:SRB | -0.0125 ± 0.013 | 0.0045 ± 0.0035 | -0.0125 ± 0.013 | -0.0125 ± 0.0021 | -0.0185 ± 0.0092 | -0.007 ± 0.0071 | -0.013 ± 0.0042 | -0.0015 ± 0.0021 | 0.0065 ± 0.005 | -0.0515 ± 0.0064 | -0.019 ± 0.0042 | -0.01 ± 0.0014 | -0.0285 ± 0.0021 | 0.009 ± 0.0085 | 0.0045 ± 0.005 | 0.0025 ± 0.021 | -0.01 ± 0.016 | -0.008 ± 0.014 | -0.012 ± 0.0014
